From paper PMC9112895, “Selective Inhibition of Plasmodium falciparum ATPase 6 by Artemisinins and Identification of New Classes of Inhibitors after Expression in Yeast” (Antimicrobial Agents and Chemotherapy, 2022)

Experiments:
[1] = target: PfATP6 (Plasmodium falciparum, UniProt Q08853); assay: cell-based; type: cell-based; set-up: pUGpd containing the yeast-optimized coding region of PfATP6 from Plasmodium falciparum; expressed in transfected cells; host or cells: Saccharomyces cerevisiae K667 and K667Δpdr5::HIS; conditions: growth inhibition, K667Δpdr5[PfATP6]
Procedure: The screening assay used here was developed from the protocol used by Pulcini et al. ([13]). A single colony of the yeast strain to be screened was picked and grown in 5 mL of selective medium until stationary phase was reached. The culture was diluted 100-fold in ampicillin-supplemented yeast extract-peptone-dextrose (YPD) medium to an OD at 620 nm (OD620) equivalent to that of lag phase. YPD medium was supplemented with an appropriate concentration of calcium, depending on the transformed strain. […] The optimal calcium concentration was periodically monitored and, if necessary, adjusted using a calcium concentration range of 10 to 30 mM. A final volume of 200 μL of the yeast culture was added to each well of a 96-well plate, with 5 technical replicates included per inhibitor. All inhibitors were dissolved in dimethyl sulfoxide (DMSO) unless otherwise stated. […] The 96-well plates were incubated at 30°C for 42 h. The yeast growth was estimated from the absorbance at 620 nm in a Tecan plate reader. Growth was normalized with the no-drug control to present data as percent growth. The data collected were analyzed using GraphPad Prism v9.0 (GraphPad software, San Diego, CA, U.S.A).

[2] = target: T1, SERCA1a (Oryctolagus cuniculus, UniProt P04191); assay: Yeast whole-cell growth inhibition assay, K667Δpdr5[SERCA1a]; type: cell-based, rabbit; set-up: containing the SERCA1a coding region from rabbit skeletal fast-twitch muscle; expressed in transfected cells; host or cells: Saccharomyces cerevisiae K667 and K667Δpdr5::HIS
Procedure: (§1) Yeast transformations were performed using the method described by Gietz and Schiestl ([48]), and transformants were selected by an uracil auxotrophic marker. Transformations were confirmed by colony PCR. Both K667 and K667Δpdr5::HIS were transformed with the following plasmids: pUGpd plasmid as a vector-only control (derived from pRS316 [49]); br434 plasmid (derived from pRS316 [50]) containing the SERCA1a coding region from rabbit skeletal fast-twitch muscle (pbr434-SERCA1a); and pUGpd containing the yeast-optimized coding region of PfATP6 from Plasmodium falciparum (pUGpd-PfATP6). Site-directed mutagenesis was performed on the SERCA1a coding region to produce the mutation E255L in the protein. Mutations were also introduced into the PfATP6 coding region to produce mutations L263E, A623E, and S769N and the double mutation A623E/S769N ([13]).
(§2) The screening assay used here was developed from the protocol used by Pulcini et al. ([13]). A single colony of the yeast strain to be screened was picked and grown in 5 mL of selective medium until stationary phase was reached. The culture was diluted 100-fold in ampicillin-supplemented yeast extract-peptone-dextrose (YPD) medium to an OD at 620 nm (OD620) equivalent to that of lag phase. YPD medium was supplemented with an appropriate concentration of calcium, depending on the transformed strain. The optimal calcium concentration for the PfATP6-expressing strain was 22 mM, and that for the SERCA1a-expressing strain was […]. The optimal calcium concentration was periodically monitored and, if necessary, adjusted using a calcium concentration range of 10 to 30 mM. A final volume of 200 μL of the yeast culture was added to each well of a 96-well plate, with 5 technical replicates included per inhibitor. All inhibitors were dissolved in dimethyl sulfoxide (DMSO) unless otherwise stated. […] The yeast growth was estimated from the absorbance at 620 nm in a Tecan plate reader. […] The data collected were analyzed using GraphPad Prism v9.0 (GraphPad software, San Diego, CA, U.S.A).

[3] = test system: K667Δpdr5::pUGpd; assay: Yeast whole-cell growth inhibition, vector-only control K667Δpdr5::pUGpd; type: cell-based, Saccharomyces cerevisiae; conditions: compound screen
Procedure: The screening assay used here was developed from the protocol used by Pulcini et al. ([13]). A single colony of the yeast strain to be screened was picked and grown in 5 mL of selective medium until stationary phase was reached. The culture was diluted 100-fold in ampicillin-supplemented yeast extract-peptone-dextrose (YPD) medium to an OD at 620 nm (OD620) equivalent to that of lag phase. YPD medium was supplemented with an appropriate concentration of calcium, depending on the transformed strain. The optimal calcium concentration for the PfATP6-expressing strain was 22 mM, and that for the SERCA1a-expressing strain was […]. The optimal calcium concentration was periodically monitored and, if necessary, adjusted using a calcium concentration range of 10 to 30 mM. A final volume of 200 μL of the yeast culture was added to each well of a 96-well plate, with 5 technical replicates included per inhibitor. All inhibitors were dissolved in dimethyl sulfoxide (DMSO) unless otherwise stated. Stock solutions of each inhibitor were diluted 100-fold in each well to give the desired final concentration. […] The 96-well plates were incubated at 30°C for 42 h. The yeast growth was estimated from the absorbance at 620 nm in a Tecan plate reader. […] The data collected were analyzed using GraphPad Prism v9.0 (GraphPad software, San Diego, CA, U.S.A).

[4] = target: T1, SERCA1a; assay: Yeast whole-cell growth inhibition assay, K667::SERCA1a; type: cell-based, rabbit; set-up: containing the SERCA1a coding region from rabbit skeletal fast-twitch muscle; expressed in transfected cells; host or cells: Saccharomyces cerevisiae K667 and K667Δpdr5::HIS; conditions: measured at 40 h
Procedure: as §1
The screening assay used here was developed from the protocol used by Pulcini et al. ([13]). […] The optimal calcium concentration was periodically monitored and, if necessary, adjusted using a calcium concentration range of 10 to 30 mM. […] The yeast growth was estimated from the absorbance at 620 nm in a Tecan plate reader. […] The data collected were analyzed using GraphPad Prism v9.0 (GraphPad software, San Diego, CA, U.S.A).

[5] = target: T2, E255LSERCA1a (Oryctolagus cuniculus, UniProt P04191, E255L); assay: Yeast whole-cell growth inhibition assay, K667Δpdr5[SERCA1a]255L; type: cell-based, rabbit
T2 construct: expressed in transfected cells; host or cells: Saccharomyces cerevisiae K667Δpdr5
Procedure: The E255L mutation was introduced into SERCA1a using the following primers: forward, 5′-[…]-3′; reverse, 5′-[…]-3′. Site-directed mutagenesis was performed using the Agilent Quikchange Lightning site-directed mutagenesis kit, following the manufacturer’s instructions. Mutants were screened by Sanger sequencing (Eurofins, UK).
as §2, with “mM.” for “mM. A final volume of 200 μL of the yeast culture was added to each well of a 96-well plate, with 5 technical replicates included per inhibitor. All inhibitors were dissolved in dimethyl sulfoxide (DMSO) unless otherwise stated.”

T1 sequence (P04191 other isoform, or with tags, fused parts or gaps): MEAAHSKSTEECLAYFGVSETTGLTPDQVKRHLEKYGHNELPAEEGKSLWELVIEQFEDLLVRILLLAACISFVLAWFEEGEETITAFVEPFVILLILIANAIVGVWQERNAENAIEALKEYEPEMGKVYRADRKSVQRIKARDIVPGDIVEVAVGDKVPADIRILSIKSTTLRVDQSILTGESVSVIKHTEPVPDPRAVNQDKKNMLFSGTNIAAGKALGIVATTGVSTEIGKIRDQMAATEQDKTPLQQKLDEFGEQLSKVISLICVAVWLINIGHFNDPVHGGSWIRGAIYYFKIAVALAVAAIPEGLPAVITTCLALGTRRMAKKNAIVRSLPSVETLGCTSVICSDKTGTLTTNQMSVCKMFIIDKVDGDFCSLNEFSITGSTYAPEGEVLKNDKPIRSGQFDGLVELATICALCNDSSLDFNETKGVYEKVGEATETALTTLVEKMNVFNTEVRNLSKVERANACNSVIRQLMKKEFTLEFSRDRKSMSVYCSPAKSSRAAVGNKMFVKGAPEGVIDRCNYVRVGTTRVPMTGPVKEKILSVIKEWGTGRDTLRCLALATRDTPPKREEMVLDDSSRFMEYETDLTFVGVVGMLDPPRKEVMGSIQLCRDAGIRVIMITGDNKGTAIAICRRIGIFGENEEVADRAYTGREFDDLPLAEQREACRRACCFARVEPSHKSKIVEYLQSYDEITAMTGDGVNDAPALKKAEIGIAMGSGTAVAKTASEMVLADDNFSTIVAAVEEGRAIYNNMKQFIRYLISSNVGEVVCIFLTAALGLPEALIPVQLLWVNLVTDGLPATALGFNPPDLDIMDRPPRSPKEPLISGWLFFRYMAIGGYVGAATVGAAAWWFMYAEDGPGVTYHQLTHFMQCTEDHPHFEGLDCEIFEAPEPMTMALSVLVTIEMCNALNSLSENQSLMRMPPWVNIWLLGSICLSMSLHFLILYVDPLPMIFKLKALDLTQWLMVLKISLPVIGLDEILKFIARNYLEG
T2 sequence (P04191 other isoform, or with tags, fused parts or gaps E255L): as the sequence (P04191 other isoform, or with tags, fused parts or gaps) above, with E255L counted along it
Sequence of PfATP6 (Q08853 whole entry): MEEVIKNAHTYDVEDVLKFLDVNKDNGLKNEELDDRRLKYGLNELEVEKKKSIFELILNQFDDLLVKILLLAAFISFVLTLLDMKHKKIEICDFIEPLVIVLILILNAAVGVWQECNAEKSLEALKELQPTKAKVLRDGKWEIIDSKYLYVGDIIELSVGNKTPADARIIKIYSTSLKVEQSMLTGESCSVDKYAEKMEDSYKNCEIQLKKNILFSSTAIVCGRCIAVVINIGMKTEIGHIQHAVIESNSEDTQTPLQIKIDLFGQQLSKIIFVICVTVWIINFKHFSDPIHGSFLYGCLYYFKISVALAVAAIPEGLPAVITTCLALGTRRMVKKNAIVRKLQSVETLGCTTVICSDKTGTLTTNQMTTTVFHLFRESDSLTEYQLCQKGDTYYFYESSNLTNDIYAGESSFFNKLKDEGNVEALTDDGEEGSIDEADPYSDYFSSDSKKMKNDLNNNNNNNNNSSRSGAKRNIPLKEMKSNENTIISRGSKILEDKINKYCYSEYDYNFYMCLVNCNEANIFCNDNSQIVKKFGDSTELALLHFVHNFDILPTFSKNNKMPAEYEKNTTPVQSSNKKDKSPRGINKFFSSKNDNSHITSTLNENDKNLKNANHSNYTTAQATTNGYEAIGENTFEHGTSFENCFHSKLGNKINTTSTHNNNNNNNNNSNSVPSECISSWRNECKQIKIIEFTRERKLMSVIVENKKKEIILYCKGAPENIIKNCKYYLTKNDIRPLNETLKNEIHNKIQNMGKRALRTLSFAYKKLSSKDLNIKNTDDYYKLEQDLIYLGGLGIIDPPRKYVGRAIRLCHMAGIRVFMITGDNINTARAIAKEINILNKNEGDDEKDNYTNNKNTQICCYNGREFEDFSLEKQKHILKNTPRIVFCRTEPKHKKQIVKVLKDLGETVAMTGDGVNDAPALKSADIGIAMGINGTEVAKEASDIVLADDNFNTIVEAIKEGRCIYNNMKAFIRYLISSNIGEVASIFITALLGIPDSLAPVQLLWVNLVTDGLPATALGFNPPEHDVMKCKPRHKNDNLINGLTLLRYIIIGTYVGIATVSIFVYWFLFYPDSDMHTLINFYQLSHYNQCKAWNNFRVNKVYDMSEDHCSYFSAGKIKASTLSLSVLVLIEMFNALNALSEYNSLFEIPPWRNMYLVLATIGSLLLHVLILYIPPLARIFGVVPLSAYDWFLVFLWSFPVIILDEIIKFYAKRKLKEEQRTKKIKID

O=C(Nc1cccc(C(F)(F)F)c1)c1cc(Cl)ccc1O [MMV665807]
inhibition of PfATP6 in compound screen [1]: highest reproducible potency
inhibition of control strain K667Δpdr5::SERCA1a ([2]; compound screen): almost no inhibition
inhibition of control strain K667Δpdr5::pUGpd [3]: almost no inhibition

C/C=C(/C)C(=O)O[C@H]1C(C)=C2[C@H]([C@@H]1OC(=O)CCCCCCC)[C@@](C)(OC(C)=O)C[C@H](OC(=O)CCC)[C@@]1(O)[C@H]2OC(=O)[C@@]1(C)O [thapsigargin]
fold lower IC50 in K667DPDR5::SERCA1a than in K667::SERCA1a [2]: > 2 fold
IC50 ([2]; K667DPDR5::SERCA1a (wild-type E255), measured at 40 h): 0.142 ± 0.0439 µM
IC50 [4]: 0.335 ± 0.0675 µM
IC50 [5]: 0.794 ± 0.247 µM
fold less sensitive, E255LSERCA1a versus wild-type [5]: 5 fold
